Reference: patent US20070255061A1, “5-Fluoro-, Chloro-and Cyano-Pyridin-2-Yl-Tetrazoles as Ligands of the Metabotropic Glutamate Receptor-5” (AstraZeneca AB, priority 2003, published 2007)
In brackets after ≈: the same amount, converted by molar mass.

Tests used:
[1] = Aqueous solubility in 0.1 M phosphate buffer pH 7.4; assay type: physicochemical; conditions: for solubility at 24 h: 21 °C, aqueous buffer, thermodynamic from solid, 0.1 M phosphate buffer, pH 7.4, 20 to 22° C., read-out: aq. Solubility
Description: Duplicate of 1-2 mg of the test compound are incubated in 0.1 M phosphate buffer, pH 7.4, in 2 mL glass-vials on a plate bed shaker (IKA®-Schüttler MTS-4, IKA Labortechnik) at 300 rpm at a temperature of 20 to 22° C. for 24 hours. Non-dissolved material is centrifugated down from the saturated solution at 3000 rpm for 2×15 minutes at 22° C. (Multifuge® 3 S-R, Heraeus). The aqueous supernatant is transferred to glass-vials and aliquotes used for quantitative analysis using reversed HPLC with MS confirmation of compound identity. Quantification is performed by the UV-trace of the chromatogram against a calibration curve, 0-200 μM, of the test compound dissolved in DMSO at the wavelength of a positive inflection point of the UV spectrum. The reported values (aq. solubility) are the mean values of duplicate HPLC-analysis of two independent incubations.

[2] = Metabolic stability in pooled human liver microsomes; assay type: in vitro ADME; conditions: for h.mic. FH (fraction escaping hepatic clearance): 1 μM compound, 0.5 mg microsomal protein/mL, 37° C., calculated from halflife, fu=1; for human microsomal metabolic stability (h.mic. FH) compared to the unsubstituted analog (Z=H): incubated with human microsomes
Description: The compounds were incubated (at 1 μM) with characterized, pooled human liver microsomes (0.5 mg microsomal protein/mL incubation) at 37° C. in phosphate buffer (50 mM potassium phosphate, pH 7.4) The incubations were started by the addition of a cofactor (1 mM NADPH (Nicotinamide adenine dinucleotide phosphate in reduced form) and terminated by the addition of acetonitrile (1:1). The incubations were analyzed by LC/MS and a time curve for the disappearance of the parent compound was constructed. Control incubations without microsomes, or with acetonitrile addition before the addition of the cofactor, were used to check for non-enzymatic degradation/disappearance. […] The fraction escaping hepatic clearance, FH, given in %, was calculated from the hepatic clearance according to the following equation: [formula] Thus, the higher the FH, the more metabolically stable the compound. Solubility

human mGluR5d = biological target: T1, human mGluR5d (Homo sapiens, UniProt P41594); assay: FLIPR analysis of [Ca2+]i mobilization, antagonist activity; assay type: cell-based; conditions: cells expressing human mGluR5d, read-out: IC50 mGluR5
T1 construct: expressed in transfected cells; GHEK cells stably expressing the receptor are named only for the IP3 assay
T1 sequence (P41594 21-942 isoform P41594-3 limits assumed): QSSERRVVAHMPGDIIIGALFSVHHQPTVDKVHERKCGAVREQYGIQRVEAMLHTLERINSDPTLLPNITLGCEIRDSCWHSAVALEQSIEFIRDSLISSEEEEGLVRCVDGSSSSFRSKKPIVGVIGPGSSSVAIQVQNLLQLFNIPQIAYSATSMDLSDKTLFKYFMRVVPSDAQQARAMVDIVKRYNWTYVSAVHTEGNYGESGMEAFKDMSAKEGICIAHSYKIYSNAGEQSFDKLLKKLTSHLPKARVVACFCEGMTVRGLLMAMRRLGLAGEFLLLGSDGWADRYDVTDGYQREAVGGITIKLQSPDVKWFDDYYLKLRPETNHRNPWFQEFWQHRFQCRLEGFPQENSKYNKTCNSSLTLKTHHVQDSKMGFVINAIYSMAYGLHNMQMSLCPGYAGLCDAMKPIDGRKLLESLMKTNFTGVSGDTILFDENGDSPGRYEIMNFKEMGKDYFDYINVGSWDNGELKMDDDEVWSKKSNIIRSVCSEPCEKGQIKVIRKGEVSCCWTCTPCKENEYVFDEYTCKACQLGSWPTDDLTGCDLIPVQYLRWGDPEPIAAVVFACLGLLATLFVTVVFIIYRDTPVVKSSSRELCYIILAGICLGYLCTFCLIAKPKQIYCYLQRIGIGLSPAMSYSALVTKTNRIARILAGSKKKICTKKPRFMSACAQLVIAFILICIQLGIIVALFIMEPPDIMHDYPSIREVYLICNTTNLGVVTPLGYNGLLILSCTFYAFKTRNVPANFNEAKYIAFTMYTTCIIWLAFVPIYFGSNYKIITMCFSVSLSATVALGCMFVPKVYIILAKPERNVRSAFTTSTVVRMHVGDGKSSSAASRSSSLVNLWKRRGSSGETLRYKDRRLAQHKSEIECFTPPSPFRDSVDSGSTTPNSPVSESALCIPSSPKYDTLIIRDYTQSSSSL

solubility at 24 h [1] [µM]	increase in solubility compared to the corresponding bromo derivative (Z=Br) ([1]; aq. solubility) [fold]	h.mic. FH (fraction escaping hepatic clearance) [2] [%]	IC50 (human mGluR5d) [nM]	Structure (SMILES)	human microsomal metabolic stability (h.mic. FH) compared to the unsubstituted analog (Z=H) [2]
4.3 (≈ 1.22 µg/mL)	22	71	–	N#Cc1cc(F)cc(-n2nnc(-c3ccc(F)cn3)n2)c1 [3-Fluoro-5-[5-(5-fluoropyridin-2-yl)-2H-tetrazol-2-yl]benzonitrile]	significantly more stable
0.2 (≈ 0.069 µg/mL)	–	92	–	N#Cc1cc(F)cc(-n2nnc(-c3ccc(Br)cn3)n2)c1 [3-[5-(5-bromopyridin-2-yl)-2H-tetrazol-2-yl]-5-fluorobenzonitrile]	significantly higher human metabolic stability
43 (≈ 11.4 µg/mL)	–	10	12	N#Cc1cc(F)cc(-n2nnc(-c3ccccn3)n2)c1 [3-fluoro-5-(5-pyridin-2-yl-2H-tetrazol-2-yl)benzonitrile]	–
